Experimental data taken from the supplement of paper PMC11451515.

Legend:
Settings in all cases: 48 h
[1] = tested on: SEM cells; experiment: cell viability relative to DMSO control; higher = less cytotoxic
In short: (§1)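 Viability is expressed as a percentage of DMSO wells within each plate, and cell-free wells serve as background. Seeding densities in the 1536-well plates (5 μl) were 500 cells/well for NOMO1 or SEM leukemia cells and 1000 cells/well for P12-Ichikawa. Each line was adapted for at least four passages in each medium. Library compounds in DMSO were pin-dosed at 47 μM to 0.79 nM (11 points, threefold), and CellTiter-Glo One luminescence was read after 48 h at 37°C.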

[2] = tested on: P12-Ichikawa; experiment: as above
In short: as §1

[3] = tested on: NOMO1; experiment: as above
In short: as §1

[4] = tested on: SEM cells; experiment: AUC of viability dose-response curve (% viability x log10 dose units); higher = less sensitive
In short: (§2)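 In 1536-well plates, leukemia cells adapted to each medium (500 or 1000 cells/well) were exposed for 48 h at 37°C to library compounds in DMSO across 11 threefold doses, 47 μM down to 0.79 nM. Viability was read by CellTiter-Glo One luminescence and normalised per plate to DMSO and cell-free wells. A four-parameter log-logistic fit over log10 doses was integrated by trapezoidal rule. This yielded the area under the curve, with over-full-viability curves scaled and quality-control failures dropped.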

[5] = tested on: P12-Ichikawa; experiment: as above
In short: as §2

[6] = tested on: NOMO1; experiment: as above
In short: as §2

CN(C)Cc1cccc(N/C(=C2\C(=O)Nc3cc(C(=O)N(C)C)ccc32)c2ccccc2)c1
cell viability [%]
Settings | [1] | [2] | [3]
HPLM + 10% dialyzed FBS, 0.000781 µM | 75.8 | 95.7 | 99.3
HPLM + 10% dialyzed FBS, 0.00234 µM | 88.4 | 105 | 105
HPLM + 10% dialyzed FBS, 0.00702 µM | 100 | 110 | 112
HPLM + 10% dialyzed FBS, 0.0211 µM | 98.6 | 101 | 112
HPLM + 10% dialyzed FBS, 0.0632 µM | 112 | 119 | 91.1
HPLM + 10% dialyzed FBS, 0.19 µM | 101 | 114 | 118
HPLM + 10% dialyzed FBS, 0.569 µM | 108 | 111 | 110
HPLM + 10% dialyzed FBS, 1.71 µM | 97.2 | 115 | 97.9
HPLM + 10% dialyzed FBS, 5.12 µM | 90.7 | 103 | 74.8
HPLM + 10% dialyzed FBS, 15.4 µM | 55 | 93.2 | 58.2
HPLM + 10% dialyzed FBS, 46.1 µM | 2.72 | 42.3 | 28.8
RPMI 5 mM glucose + 10% FBS, 0.000781 µM | 92.4 | 90.7 | 100
RPMI 5 mM glucose + 10% FBS, 0.00234 µM | 87.5 | 114 | 105
RPMI 5 mM glucose + 10% FBS, 0.00702 µM | 102 | 108 | 101
RPMI 5 mM glucose + 10% FBS, 0.0211 µM | 104 | 109 | 105
RPMI 5 mM glucose + 10% FBS, 0.0632 µM | 109 | 114 | 103
RPMI 5 mM glucose + 10% FBS, 0.19 µM | 114 | 111 | 107
RPMI 5 mM glucose + 10% FBS, 0.569 µM | 104 | 113 | 95.2
RPMI 5 mM glucose + 10% FBS, 1.71 µM | 102 | 106 | 92.4
RPMI 5 mM glucose + 10% FBS, 5.12 µM | 71.2 | 96 | 84.6
RPMI 5 mM glucose + 10% FBS, 15.4 µM | 7.07 | 90.3 | 68.5
RPMI 5 mM glucose + 10% FBS, 46.1 µM | 1.12 | 65 | 55
RPMI 5 mM glucose + 10% dialyzed FBS, 0.000781 µM | 74.2 | 100 | 95.7
RPMI 5 mM glucose + 10% dialyzed FBS, 0.00234 µM | 103 | 111 | 88.9
RPMI 5 mM glucose + 10% dialyzed FBS, 0.00702 µM | 96.5 | 111 | 95.9
RPMI 5 mM glucose + 10% dialyzed FBS, 0.0211 µM | 108 | 117 | 96.4
RPMI 5 mM glucose + 10% dialyzed FBS, 0.0632 µM | 103 | 120 | 107
RPMI 5 mM glucose + 10% dialyzed FBS, 0.19 µM | 110 | 111 | 99.6
RPMI 5 mM glucose + 10% dialyzed FBS, 0.569 µM | 111 | 114 | 112
RPMI 5 mM glucose + 10% dialyzed FBS, 1.71 µM | 115 | 118 | 112
RPMI 5 mM glucose + 10% dialyzed FBS, 5.12 µM | 85.6 | 103 | 81.2
RPMI 5 mM glucose + 10% dialyzed FBS, 15.4 µM | 26.6 | 98.2 | 73
RPMI 5 mM glucose + 10% dialyzed FBS, 46.1 µM | 1.38 | 64.4 | 61.6

AUC of viability dose-response curve
Settings | [4] | [5] | [6]
HPLM + 10% dialyzed FBS | 420 | 455 | 418
RPMI 5 mM glucose + 10% FBS | 394 | 453 | 433
RPMI 5 mM glucose + 10% dialyzed FBS | 411 | 458 | 444

CC[C@@H](C)[C@H](NC(=O)[C@H](CC1CCCCC1)NC(=O)c1ccno1)C(=O)N1CCC2(CCc3ccccc32)CC1
cell viability [%]
Settings | [1] | [2] | [3]
HPLM + 10% dialyzed FBS, 0.000781 µM | 41.9 | 94 | 85.9
HPLM + 10% dialyzed FBS, 0.00234 µM | 88.3 | 89.4 | 90.6
HPLM + 10% dialyzed FBS, 0.00702 µM | 78.3 | 92.7 | 86.1
HPLM + 10% dialyzed FBS, 0.0211 µM | 86 | 88.9 | 78.9
HPLM + 10% dialyzed FBS, 0.0632 µM | 65.4 | 95 | 108
HPLM + 10% dialyzed FBS, 0.19 µM | 86.3 | 94.1 | 97.3
HPLM + 10% dialyzed FBS, 0.569 µM | 83.7 | 75.8 | 75.9
HPLM + 10% dialyzed FBS, 1.71 µM | 87.1 | 80.8 | 66.1
HPLM + 10% dialyzed FBS, 5.12 µM | 93.1 | 89.2 | 79.2
HPLM + 10% dialyzed FBS, 15.4 µM | 82.6 | 78.9 | 81.7
HPLM + 10% dialyzed FBS, 46.1 µM | 70.3 | 83.3 | 69.9
RPMI 5 mM glucose + 10% FBS, 0.000781 µM | 49.4 | 79 | 80.1
RPMI 5 mM glucose + 10% FBS, 0.00234 µM | 102 | 81.5 | 88.6
RPMI 5 mM glucose + 10% FBS, 0.00702 µM | 103 | 101 | 81.1
RPMI 5 mM glucose + 10% FBS, 0.0211 µM | 89.2 | 88.7 | 79.9
RPMI 5 mM glucose + 10% FBS, 0.0632 µM | 67.5 | 89.8 | 77.1
RPMI 5 mM glucose + 10% FBS, 0.19 µM | 71.5 | 85.9 | 78.3
RPMI 5 mM glucose + 10% FBS, 0.569 µM | 88 | 64.5 | 89.1
RPMI 5 mM glucose + 10% FBS, 1.71 µM | 73.7 | 71.9 | 81.9
RPMI 5 mM glucose + 10% FBS, 5.12 µM | 79.3 | 99.8 | 84.6
RPMI 5 mM glucose + 10% FBS, 15.4 µM | 73.8 | 70.1 | 74.4
RPMI 5 mM glucose + 10% FBS, 46.1 µM | 81.3 | 74.6 | 72.2
RPMI 5 mM glucose + 10% dialyzed FBS, 0.000781 µM | 55.4 | 84.3 | 84
RPMI 5 mM glucose + 10% dialyzed FBS, 0.00234 µM | 111 | 89.3 | 85.4
RPMI 5 mM glucose + 10% dialyzed FBS, 0.00702 µM | 99.2 | 83.2 | 84
RPMI 5 mM glucose + 10% dialyzed FBS, 0.0211 µM | 105 | 81.4 | 77.9
RPMI 5 mM glucose + 10% dialyzed FBS, 0.0632 µM | 83.6 | 77.1 | 87.6
RPMI 5 mM glucose + 10% dialyzed FBS, 0.19 µM | 99.1 | 82.2 | 82.4
RPMI 5 mM glucose + 10% dialyzed FBS, 0.569 µM | 82.1 | 79.6 | 76.2
RPMI 5 mM glucose + 10% dialyzed FBS, 1.71 µM | 99.1 | 82 | 69.8
RPMI 5 mM glucose + 10% dialyzed FBS, 5.12 µM | 95.6 | 84.6 | 82.6
RPMI 5 mM glucose + 10% dialyzed FBS, 15.4 µM | 93.9 | 76 | 73.7
RPMI 5 mM glucose + 10% dialyzed FBS, 46.1 µM | 91.9 | 77 | 83.2

AUC of viability dose-response curve
Settings | [4] | [5] | [6]
HPLM + 10% dialyzed FBS | 382 | 418 | 399
RPMI 5 mM glucose + 10% FBS | 381 | 394 | 385
RPMI 5 mM glucose + 10% dialyzed FBS | 449 | 388 | 385
